PMC9288506, “Compounds activating VCP D1 ATPase enhance both autophagic and proteasomal neurotoxic protein clearance” (Nature Communications, 2022)

Target: T1, VCP (p97, Valosin-containing protein) (Homo sapiens, UniProt P55072)
T1 construct: Full-length VCP (6xHis-tag)
Experiment: SPR
Type: binding

T1 sequence (P55072 2-806): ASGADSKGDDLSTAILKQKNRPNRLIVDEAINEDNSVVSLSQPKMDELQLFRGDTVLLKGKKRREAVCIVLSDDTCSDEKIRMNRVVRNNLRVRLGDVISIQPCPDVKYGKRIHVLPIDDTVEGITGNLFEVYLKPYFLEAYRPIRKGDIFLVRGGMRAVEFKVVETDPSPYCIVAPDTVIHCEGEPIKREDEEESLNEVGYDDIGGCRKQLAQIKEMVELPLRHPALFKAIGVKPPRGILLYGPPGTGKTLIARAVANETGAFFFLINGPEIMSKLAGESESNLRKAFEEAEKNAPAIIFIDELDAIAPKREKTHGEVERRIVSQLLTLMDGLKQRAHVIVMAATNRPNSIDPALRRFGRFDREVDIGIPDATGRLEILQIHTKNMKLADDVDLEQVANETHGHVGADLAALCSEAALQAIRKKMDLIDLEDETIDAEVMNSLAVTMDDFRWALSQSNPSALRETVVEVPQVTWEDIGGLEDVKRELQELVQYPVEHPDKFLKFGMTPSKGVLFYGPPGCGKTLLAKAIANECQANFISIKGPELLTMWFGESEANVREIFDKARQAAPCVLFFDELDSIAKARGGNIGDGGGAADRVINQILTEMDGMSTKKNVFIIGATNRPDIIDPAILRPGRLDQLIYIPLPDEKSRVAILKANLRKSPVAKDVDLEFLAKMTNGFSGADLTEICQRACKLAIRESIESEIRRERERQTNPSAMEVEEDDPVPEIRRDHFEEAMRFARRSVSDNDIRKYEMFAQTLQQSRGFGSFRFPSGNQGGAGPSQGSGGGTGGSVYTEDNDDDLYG

Row | Compound | Kd [nM]
1 | COc1cccc2c(NCc3ccccc3)nc(-n3c(N)nc4ccccc43)nc12 [ML240] | 230 ± 30
2 | Nc1ncnc2c1ncn2[C@@H]1O[C@H](COP(=O)(O)OP(=O)(O)O)[C@@H](O)[C@H]1O [ADP] | ~800
